pIC50: −log10 of the molar value.
What follows are compounds tested against human Cat S (Homo sapiens, UniProt P25774) (assay: Cathepsin enzyme inhibition assay (fluorogenic peptide substrate cleavage)). Conditions: human Cat S 1 nM; substrate Z-Val-Val-Arg-AMC 20 μM; pH 6.5; fluorescence over 20 minutes.
Format: biochemical
Method: Cathepsin Enzyme Inhibition Assay
Enzyme activity is measured by observing the increase in fluorescence intensity caused by cleavage of a peptide substrate containing a fluorophore whose emission is quenched in the intact peptide.
Assay buffer: 100 mM potassium phosphate pH 6.5, EDTA-Na 5 mM, Triton X-100 0.001%, DTT 5 mM. Enzymes (all at 1 nM): human and mouse Cathepsin S, Cat K, Cat B, Cat L. Substrate (20 μM): Z-Val-Val-Arg-AMC, except for Cat K which uses Z-Leu-Arg-AMC (both from Bachem).
AMC=7-Amino-4-Methyl-Coumarin.
DTT=dithiothreitol. Final volume: 100 μL.
Excitation 360 nm, Emission 465 nm.
Enzyme is added to the substance dilutions in 96-well microtitre plates and the reaction is started with substrate. Fluorescence emission is measured over 20 minutes, during which time a linear increase is observed in the absence of inhibitor. IC50 are calculated by standard methods. Inhibition of human Cat S, mouse Cat S, human Cat K, mouse Cat K, human Cat B, mouse Cat B, human Cat L and mouse Cat L have been measured separately. The results obtained for human Cat S are expressed in the following table.

Chain of human Cat S (P25774 115-331): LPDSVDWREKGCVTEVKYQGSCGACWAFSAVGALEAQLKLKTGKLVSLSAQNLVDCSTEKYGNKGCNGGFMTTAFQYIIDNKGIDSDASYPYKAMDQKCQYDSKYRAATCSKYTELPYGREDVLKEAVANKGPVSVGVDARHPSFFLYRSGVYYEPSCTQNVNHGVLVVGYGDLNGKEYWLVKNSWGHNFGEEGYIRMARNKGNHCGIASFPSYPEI

SMILES	pIC50
CO[C@@H]1C[C@H](S(=O)(=O)c2ccc(-c3c(C)noc3C)cc2C(F)(F)F)C[C@H]1C(=O)NC1(C#N)CC1 (racemic) [Example 91, (1R,2R,4R) and (1S,2S,4S)-4-[4-(3,5-Dimethyl-isoxazol-4-yl)-2-trifluoromethyl-benzenesulfonyl]-2-methoxy-cyclopentanecarboxylic acid (1-cyano-cyclopropyl)-amide]	9.30
N#CC1(NC(=O)[C@H]2CC[C@H](S(=O)(=O)c3ccc(F)cc3Cl)C2)CC1 (racemic) [Example 92, (1S,3S) and (1R,3R)-3-(2-Chloro-4-fluoro-benzenesulfonyl)-cyclopentanecarboxylic acid (1-cyano-cyclopropyl)-amide]	6.41
C[C@@H](Oc1ccc(S(=O)(=O)[C@H]2CC[C@H](C(=O)NC3(C#N)CC3)C2)c(Cl)c1)C(F)(F)F (racemic) [Example 93]	6.25
N#CC1(NC(=O)[C@H]2CC[C@H](S(=O)(=O)c3ccc(N4CCOCC4)cc3Cl)C2)CC1 (racemic) [Example 94, (1S,3S) and (1R,3R)-3-(2-Chloro-4-morpholin-4-yl-benzenesulfonyl)-cyclopentanecarboxylic acid (1-cyano-cyclopropyl)-amide]	6.54
N#CC1(NC(=O)[C@H]2CC[C@H](S(=O)(=O)c3ccc(N4CC5(COC5)C4)cc3Cl)C2)CC1 (racemic) [Example 95, (1S,3S) and (1R,3R)-3-[2-chloro-4-(2-oxa-6-aza-spiro[3.3]hept-6-yl)-benzenesulfonyl]-cyclopentanecarboxylic acid (1-cyano-cyclopropyl)-amide]	6.85
N#CC1(NC(=O)[C@H]2CC[C@H](S(=O)(=O)c3ccc(N4CCC(F)(F)C4)cc3Cl)C2)CC1 (racemic) [Example 96, (1S,3S) and (1R,3R)-3-[2-chloro-4-(3,3-difluoro-pyrrolidin-1-yl)-benzenesulfonyl]-cyclopentanecarboxylic acid (1-cyano-cyclopropyl)-amide]	6.67
CCN1CCN(c2ccc(S(=O)(=O)[C@H]3CC[C@H](C(=O)NC4(C#N)CC4)C3)c(Cl)c2)CC1 (racemic) [Example 97, (1S,3S) and (1R,3R)-3-[2-chloro-4-(4-ethyl-piperazin-1-yl)-benzenesulfonyl]-cyclopentanecarboxylic acid (1-cyano-cyclopropyl)-amide]	6.80
N#CC1(NC(=O)[C@H]2CC[C@H](S(=O)(=O)c3ccc(N4CCN(C5CC5)CC4)cc3Cl)C2)CC1 (racemic) [Example 102, (1S,3S) and (1R,3R)-3-[2-Chloro-4-(4-cyclopropyl-piperazin-1-yl)-benzenesulfonyl]-cyclopentanecarboxylic acid (1-cyano-cyclopropyl)-amide]	6.57
CO[C@@H]1C[C@H](S(=O)(=O)c2ccc(-c3ccnc(C(F)(F)F)c3)cc2C(F)(F)F)C[C@H]1C(=O)NC1(C#N)CC1 (racemic) [Example 109, (1R,2R,4R) and (1S,2S,4S)-2-Methoxy-4-[2-trifluoromethyl-4-(2-trifluoromethyl-pyridin-4-yl)-benzenesulfonyl]-cyclopentanecarboxylic acid (1-cyano-cyclopropyl)-amide]	9.40
CO[C@@H]1C[C@H](S(=O)(=O)c2ccc(-c3ccnnc3)cc2C(F)(F)F)C[C@H]1C(=O)NC1(C#N)CC1 (racemic) [Example 110, (1R,2R,4R) and (1S,2S,4S)-2-Methoxy-4-(4-pyridazin-4-yl-2-trifluoromethyl-benzenesulfonyl)-cyclopentanecarboxylic acid (1-cyano-cyclopropyl)-amide]	9.22
CO[C@@H]1C[C@H](S(=O)(=O)c2ccc(-c3cnccn3)cc2C(F)(F)F)C[C@H]1C(=O)NC1(C#N)CC1 (racemic) [Example 111, (1R,2R,4R) and (1S,2S,4S)-2-Methoxy-4-(4-pyrazin-2-yl-2-trifluoromethyl-benzenesulfonyl)-cyclopentanecarboxylic acid (1-cyano-cyclopropyl)-amide]	9.40
CC(C)O[C@@H]1C[C@H](S(=O)(=O)c2ccc(Br)cc2C(F)(F)F)C[C@H]1C(=O)NC1(C#N)CC1 (racemic) [Example 112, (1R,2R,4R) and (1S,2S,4S)-4-(4-Bromo-2-trifluoromethyl-benzenesulfonyl)-2-isopropoxy-cyclopentanecarboxylic acid (1-cyano-cyclopropyl)-amide]	9.22
CCO[C@@H]1C[C@H](S(=O)(=O)c2ccc(Br)cc2C(F)(F)F)C[C@H]1C(=O)NC1(C#N)CC1 (racemic) [Example 113, (1R,2R,4R) and (1S,2S,4S)-4-(4-Bromo-2-trifluoromethyl-benzenesulfonyl)-2-ethoxy-cyclopentanecarboxylic acid (1-cyano-cyclopropyl)-amide]	8.96
CCO[C@@H]1C[C@H](S(=O)(=O)c2ccc(-c3ccnc(C)c3)cc2C(F)(F)F)C[C@H]1C(=O)NC1(C#N)CC1 (racemic) [Example 114, (1R,2R,4R) and (1S,2S,4S)-2-Ethoxy-4-[4-(2-methyl-pyridin-4-yl)-2-trifluoromethyl-benzenesulfonyl]-cyclopentanecarboxylic acid (1-cyano-cyclopropyl)-amide]	9.52
CCO[C@@H]1C[C@H](S(=O)(=O)c2ccc(-c3c(C)noc3C)cc2C(F)(F)F)C[C@H]1C(=O)NC1(C#N)CC1 (racemic) [Example 115, (1R,2R,4R) and (1S,2S,4S)-4-[4-(3,5-Dimethyl-isoxazol-4-yl)-2-trifluoromethyl-benzenesulfonyl]-2-ethoxy-cyclopentanecarboxylic acid (1-cyano-cyclopropyl)-amide]	9.70
CCO[C@@H]1C[C@H](S(=O)(=O)c2ccc(-c3cnn(C)c3)cc2C(F)(F)F)C[C@H]1C(=O)NC1(C#N)CC1 (racemic) [Example 116, (1R,2R,4R) and (1S,2S,4S)-2-Ethoxy-4-[4-(1-methyl-1H-pyrazol-4-yl)-2-trifluoromethyl-benzenesulfonyl]-cyclopentanecarboxylic acid (1-cyano-cyclopropyl)-amide]	9.52
Cc1cc(-c2ccc(S(=O)(=O)[C@H]3C[C@@H](OC(C)C)[C@H](C(=O)NC4(C#N)CC4)C3)c(C(F)(F)F)c2)ccn1 (racemic) [Example 140, (1R,2R,4R) and (1S,2S,4S)-2-Isopropoxy-4-[4-(2-methyl-pyridin-4-yl)-2-trifluoromethyl-benzenesulfonyl]-cyclopentanecarboxylic acid (1-cyano-cyclopropyl)-amide]	9.70
Cc1noc(C)c1-c1ccc(S(=O)(=O)[C@H]2C[C@@H](OC(C)C)[C@H](C(=O)NC3(C#N)CC3)C2)c(C(F)(F)F)c1 (racemic) [Example 141, (1R,2R,4R) and (1S,2S,4S)-4-[4-(3,5-Dimethyl-isoxazol-4-yl)-2-trifluoromethyl-benzenesulfonyl]-2-isopropoxy-cyclopentanecarboxylic acid (1-cyano-cyclopropyl)-amide]	9.70
CC(C)O[C@@H]1C[C@H](S(=O)(=O)c2ccc(-c3cnn(C)c3)cc2C(F)(F)F)C[C@H]1C(=O)NC1(C#N)CC1 (racemic) [Example 142, (1R,2R,4R) and (1S,2S,4S)-2-Isopropoxy-4-[4-(1-methyl-1H-pyrazol-4-yl)-2-trifluoromethyl-benzenesulfonyl]-cyclopentanecarboxylic acid (1-cyano-cyclopropyl)-amide]	9.70
CO[C@@H]1C[C@H](S(=O)(=O)c2ccc(-n3cc(C)cn3)cc2Cl)C[C@H]1C(=O)NC1(C#N)CC1 (racemic) [Example 149, (1R,2R,4R) and (1S,2S,4S)-4-[2-Chloro-4-(4-methyl-pyrazol-1-yl)-benzenesulfonyl]-2-methoxy-cyclopentanecarboxylic acid (1-cyano-cyclopropyl)-amide]	8.71
Cc1ccc(CO[C@@H]2C[C@H](S(=O)(=O)c3ccccc3Cl)C[C@H]2C(=O)NC2(C#N)CC2)cc1 (racemic) [Example 150, (1R,2R,4R) and (1S,2S,4S)-4-(2-Chlorophenylsulfonyl)-N-(1-cyanocyclopropyl)-2-(4-methylbenzyloxy)cyclopentanecarboxamide]	8.38
N#CC1(NC(=O)[C@@H]2C[C@@H](S(=O)(=O)c3ccccc3Cl)C[C@H]2OCc2ccc(Cl)cc2C(F)(F)F)CC1 (racemic) [Example 151, (1R,2R,4R) and (1S,2S,4S)-2-(4-Chloro-2-(trifluoromethyl)benzyloxy)-4-(2-chlorophenylsulfonyl)-N-(1-cyanocyclopropyl)cyclopentanecarboxamide]	8.52
N#CC1(NC(=O)[C@@H]2C[C@@H](S(=O)(=O)c3ccccc3Cl)C[C@H]2OCc2ccc(Br)cc2)CC1 (racemic) [Example 154, (1R,2R,4R) and (1S,2S,4S)-2-(4-Bromo-benzyloxy)-4-(2-chloro-benzenesulfonyl)-cyclopentanecarboxylic acid (1-cyano-cyclopropyl)-amide]	8.12
CO[C@@H]1C[C@H](S(=O)(=O)c2ccc(N3CCN(C)CC3)cc2C(F)(F)F)C[C@H]1C(=O)NC1(C#N)CC1 (racemic) [Example 161, (1R,2R,4R) and (1S,2S,4S)-2-Methoxy-4-[4-(4-methyl-piperazin-1-yl)-2-trifluoromethyl-benzenesulfonyl]-cyclopentanecarboxylic acid (1-cyano-cyclopropyl)-amide]	8.82
